In ChEMBL document CHEMBL1201862, “PubChem BioAssay data set” (2004):
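Where inhibition never reached the appropriate level, the endpoint shown equals the highest concentration tested. Otherwise, values were interpolated linearly from a five-concentration, 48-hour dose response in 96-well plates. At the GI50, growth is halved.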 The source made the active and inactive calls. No stated cut-off is given here; in the data, active = GI50 up to about 1.1 µM and inactive = higher.

Columns and labels:
Test in all cases: NCI-60 cell line screen, 48 h
TK-10 = system: TK-10
XF498 = system: XF498
NCI-H522 = system: NCI-H522
CAKI-1 = system: CAKI-1
A549 = system: A549
M19-MEL = system: M19-MEL
A498 = system: A498
HOP-92 = system: HOP-92
HCC 2998 = system: HCC 2998
786-0 = system: 786-0
EKVX = system: EKVX
HL-60 = system: HL-60
HT-29 = system: HT-29
HCT-116 = system: HCT-116
Malme-3M = system: Malme-3M
RXF 631 = system: RXF 631
SNB-19 = system: SNB-19
LOX IMVI = system: LOX IMVI
SF-268 = system: SF-268
ACHN = system: ACHN
HOP-18 = system: HOP-18
HCT-15 = system: HCT-15
SF-295 = system: SF-295
SF-539 = system: SF-539
SR = system: SR
OVCAR-8 = system: OVCAR-8
COLO 205 = system: COLO 205
SK-MEL-2 = system: SK-MEL-2
NCI-H23 = system: NCI-H23
DMS-273 = system: DMS-273
SK-OV-3 = system: SK-OV-3
OVCAR-4 = system: OVCAR-4
SK-MEL-28 = system: SK-MEL-28
SW-620 = system: SW-620
HOP-62 = system: HOP-62
KM-20L2 = system: KM-20L2
SNB-78 = system: SNB-78
LXFL 529 = system: LXFL 529
K562 = system: K562
NCI-H226 = system: NCI-H226
MOLT-4 = system: MOLT-4
SN12C = system: SN12C
OVCAR-5 = system: OVCAR-5
U-251 = system: U-251
NCI-H460 = system: NCI-H460
KM12 = system: KM12
UACC-257 = system: UACC-257
RXF 393 = system: RXF 393
CCRF-CEM = system: CCRF-CEM
IGROV-1 = system: IGROV-1
DLD-1 = system: DLD-1
DMS-114 = system: DMS-114
SNB-75 = system: SNB-75
OVCAR-3 = system: OVCAR-3
RPMI-8226 = system: RPMI-8226
UACC-62 = system: UACC-62
M14 = system: M14
SK-MEL-5 = system: SK-MEL-5
UO-31 = system: UO-31

SMILES: CCOC(=O)C1(C)C2=CC=C(O2)C(C)(C)C2=CC=C(O2)C(C)(C)C2=CC=C(O2)C(C)(C)C2=CC=C1O2
- GI50 (TK-10): > 100 µM (inactive)
- GI50 (XF498): > 100 µM (inactive)
- GI50 (NCI-H522): > 100 µM (inactive)
- GI50 (CAKI-1): > 100 µM (inactive)
- GI50 (A549): 42.6 µM (inactive)
- GI50 (M19-MEL): > 100 µM (inactive)
- GI50 (A498): > 100 µM (inactive)
- GI50 (HOP-92): 36.5 µM (inactive)
- GI50 (HCC 2998): > 100 µM (inactive)
- GI50 (786-0): > 100 µM (inactive)
- GI50 (EKVX): > 100 µM (inactive)
- GI50 (HL-60): 55.3 µM (inactive)
- GI50 (HT-29): > 100 µM (inactive)
- GI50 (HCT-116): 46.9 µM (inactive)
- GI50 (Malme-3M): > 100 µM (inactive)
- GI50 (RXF 631): > 100 µM (inactive)
- GI50 (SNB-19): > 100 µM (inactive)
- GI50 (LOX IMVI): > 100 µM (inactive)
- GI50 (SF-268): > 100 µM (inactive)
- GI50 (ACHN): > 100 µM (inactive)
- GI50 (HOP-18): > 100 µM (inactive)
- GI50 (HCT-15): > 100 µM
- GI50 (SF-295): > 100 µM (inactive)
- GI50 (SF-539): > 100 µM (inactive)
- GI50 (SR): 68.1 µM (inactive)
- GI50 (OVCAR-8): 76.2 µM (inactive)
- GI50 (COLO 205): 42.3 µM (inactive)
- GI50 (SK-MEL-2): > 100 µM (inactive)
- GI50 (NCI-H23): > 100 µM (inactive)
- GI50 (DMS-273): > 100 µM (inactive)
- GI50 (SK-OV-3): > 100 µM (inactive)
- GI50 (OVCAR-4): 3.44 µM (inactive)
- GI50 (SK-MEL-28): > 100 µM (inactive)
- GI50 (SW-620): > 100 µM (inactive)
- GI50 (HOP-62): > 100 µM (inactive)
- GI50 (KM-20L2): > 100 µM (inactive)
- GI50 (SNB-78): > 100 µM (inactive)
- GI50 (LXFL 529): > 100 µM (inactive)
- GI50 (K562): > 100 µM (inactive)
- GI50 (NCI-H226): > 100 µM (inactive)
- GI50 (MOLT-4): 53.5 µM (inactive)
- GI50 (SN12C): > 100 µM (inactive)
- GI50 (OVCAR-5): > 100 µM (inactive)
- GI50 (U-251): 48.3 µM (inactive)
- GI50 (NCI-H460): > 100 µM (inactive)
- GI50 (KM12): > 100 µM (inactive)
- GI50 (UACC-257): > 100 µM (inactive)
- GI50 (RXF 393): > 100 µM (inactive)
- GI50 (CCRF-CEM): 64.3 µM (inactive)
- GI50 (IGROV-1): > 100 µM (inactive)

SMILES: CCCCCCCCCCCCC(CCCCCCCCCCCC)OP(=O)(O)O
- GI50 (TK-10): > 100 µM (inactive)
- GI50 (XF498): > 100 µM (inactive)
- GI50 (NCI-H522): 84.7 µM (inactive)
- GI50 (CAKI-1): > 100 µM (inactive)
- GI50 (A549): > 100 µM (inactive)
- GI50 (DLD-1): > 100 µM (inactive)
- GI50 (M19-MEL): > 100 µM (inactive)
- GI50 (A498): 20.6 µM (inactive)
- GI50 (HOP-92): 56.1 µM (inactive)
- GI50 (HCC 2998): > 100 µM (inactive)
- GI50 (786-0): > 100 µM (inactive)
- GI50 (EKVX): > 100 µM (inactive)
- GI50 (HL-60): 47.3 µM (inactive)
- GI50 (HT-29): > 100 µM (inactive)
- GI50 (HCT-116): 73.3 µM (inactive)
- GI50 (Malme-3M): > 100 µM (inactive)
- GI50 (RXF 631): 94.4 µM (inactive)
- GI50 (SNB-19): 91.6 µM (inactive)
- GI50 (LOX IMVI): > 100 µM (inactive)
- GI50 (SF-268): > 100 µM (inactive)
- GI50 (DMS-114): > 100 µM (inactive)
- GI50 (ACHN): 76.2 µM (inactive)
- GI50 (SNB-75): 43.4 µM (inactive)
- GI50 (HOP-18): > 100 µM (inactive)
- GI50 (HCT-15): 88.3 µM
- GI50 (OVCAR-3): > 100 µM (inactive)
- GI50 (SF-295): > 100 µM (inactive)
- GI50 (SF-539): 46.2 µM (inactive)
- GI50 (SR): > 100 µM (inactive)
- GI50 (OVCAR-8): > 100 µM (inactive)
- GI50 (COLO 205): > 100 µM (inactive)
- GI50 (RPMI-8226): 56.6 µM (inactive)
- GI50 (SK-MEL-2): 65.2 µM (inactive)
- GI50 (UACC-62): > 100 µM (inactive)
- GI50 (NCI-H23): > 100 µM (inactive)
- GI50 (M14): > 100 µM (inactive)
- GI50 (DMS-273): > 100 µM (inactive)
- GI50 (SK-OV-3): > 100 µM (inactive)
- GI50 (OVCAR-4): > 100 µM (inactive)
- GI50 (SK-MEL-28): > 100 µM (inactive)
- GI50 (SK-MEL-5): > 100 µM (inactive)
- GI50 (SW-620): > 100 µM (inactive)
- GI50 (HOP-62): > 100 µM (inactive)
- GI50 (KM-20L2): > 100 µM (inactive)
- GI50 (SNB-78): > 100 µM (inactive)
- GI50 (LXFL 529): > 100 µM (inactive)
- GI50 (K562): 62.2 µM (inactive)
- GI50 (NCI-H226): 75.9 µM (inactive)
- GI50 (MOLT-4): 59.2 µM (inactive)
- GI50 (SN12C): > 100 µM (inactive)
- GI50 (OVCAR-5): > 100 µM (inactive)
- GI50 (U-251): 34 µM (inactive)
- GI50 (NCI-H460): > 100 µM (inactive)
- GI50 (KM12): > 100 µM (inactive)
- GI50 (UACC-257): > 100 µM (inactive)
- GI50 (RXF 393): > 100 µM (inactive)
- GI50 (CCRF-CEM): > 100 µM (inactive)
- GI50 (IGROV-1): 87.3 µM (inactive)
- GI50 (UO-31): 55.6 µM (inactive)
